Several values for one entry are separate records, joined by “and”; a condition that tells them apart may be missing. Equal values may be shown once. Toxic doses and inconclusive results are not listed.

The subject of the experiment is BDF1 mice, P388 leukemia ip, median survival T/C. In words: NCI In Vivo Anticancer Drug Screen. Data for tumor model P388 Leukemia (intraperitoneal) in B6D2F1 (BDF1) mice. To be noted: endpoint: median survival time, higher = longer survival. Put shortly:
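In tumour-bearing mice, survival after compound treatment is set against the vehicle group and given as a quotient.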

Setting [1] is: dose: 100.0 mg/kg/injection, schedule: Q04DX003 (ip), vehicle: Klucel (hydroxypropylcellulose) (HPC).
[2] abbreviates: dose: 400.0 mg/kg/injection, schedule: Q04DX003 (ip), vehicle: Klucel (hydroxypropylcellulose) (HPC).
[3] abbreviates: dose: 25.0 mg/kg/injection, schedule: Q04DX003 (ip), vehicle: other.
The mark [4] stands for this setting: dose: 50.0 mg/kg/injection, schedule: Q01DX009 (ip), vehicle: saline with Tween-80.
[5] abbreviates: dose: 50.0 mg/kg/injection, schedule: Q04DX003 (ip), vehicle: saline.
Where [6] appears, read: dose: 100.0 mg/kg/injection, schedule: Q04DX003 (ip), vehicle: saline.
Setting [7] is: dose: 200.0 mg/kg/injection, schedule: Q04DX003 (ip), vehicle: saline.
Setting [8] is: dose: 100.0 mg/kg/injection, schedule: Q01DX009 (ip), vehicle: saline with Tween-80.
[9] abbreviates: dose: 200.0 mg/kg/injection, schedule: Q01DX009 (ip), vehicle: saline with Tween-80.
Setting [10] is: dose: 400.0 mg/kg/injection, schedule: Q01DX009 (ip), vehicle: saline with Tween-80.
[11] abbreviates: dose: 100.0 mg/kg/injection, schedule: Q04DX003 (ip), vehicle: saline with Tween-80.
Setting [12] is: dose: 200.0 mg/kg/injection, schedule: Q04DX003 (ip), vehicle: saline with Tween-80.
[13] abbreviates: dose: 6.25 mg/kg/injection, schedule: Q01DX009 (ip), vehicle: saline.

As to `COC(=O)c1ccc(-c2ccccc2)cc1`, the T/C is 98 % of control (dose: 25.0 mg/kg/injection, schedule: Q04DX003 (ip), vehicle: Klucel (hydroxypropylcellulose) (HPC)); 95 % of control (dose: 50.0 mg/kg/injection, schedule: Q04DX003 (ip), vehicle: Klucel (hydroxypropylcellulose) (HPC)); 94 % of control under setting [1]; 101 % of control (dose: 200.0 mg/kg/injection, schedule: Q04DX003 (ip), vehicle: Klucel (hydroxypropylcellulose) (HPC)); 100 % of control under setting [2].
`O=C1NC(=O)C([N+](=O)[O-])=C(O)C1=O`: the T/C is 110 % of control (dose: 1.0 mg/kg/injection, schedule: Q01DX009 (ip), vehicle: saline with Tween-80); 105 % of control (dose: 4.0 mg/kg/injection, schedule: Q01DX009 (ip), vehicle: saline with Tween-80); 100 % of control (dose: 8.0 mg/kg/injection, schedule: Q01DX009 (ip), vehicle: saline with Tween-80); 150 % of control (dose: 9.0 mg/kg/injection, schedule: Q01DX009 (ip), vehicle: saline with Tween-80); 95 % of control (dose: 15.0 mg/kg/injection, schedule: Q01DX009 (ip), vehicle: saline with Tween-80); 110 % of control (dose: 18.0 mg/kg/injection, schedule: Q01DX009 (ip), vehicle: saline with Tween-80). Moreover, the T/C under setting [3] is 104 % of control; the T/C (dose: 35.0 mg/kg/injection, schedule: Q01DX009 (ip), vehicle: saline with Tween-80) is 100 % of control and 120 % of control; the T/C (dose: 35.0 mg/kg/injection, schedule: Q04DX003 (ip), vehicle: other) was 104 % of control; the T/C under setting [4] is 90 % of control and 95 % of control; the T/C (dose: 50.0 mg/kg/injection, schedule: Q04DX003 (ip), vehicle: other) was 104 % of control; the T/C under setting [5] was 118 % of control. For the same compound, the T/C runs as follows: (dose: 75.0 mg/kg/injection, schedule: Q01DX009 (ip), vehicle: saline with Tween-80) 105 % of control; (dose: 75.0 mg/kg/injection, schedule: Q04DX003 (ip), vehicle: other) 100 % of control; under setting [6], 109 % of control; (dose: 150.0 mg/kg/injection, schedule: Q01DX009 (ip), vehicle: saline with Tween-80) 95 % of control; under setting [7], 104 % of control and 122 % of control; (dose: 300.0 mg/kg/injection, schedule: Q01DX009 (ip), vehicle: saline with Tween-80) 90 % of control.
On to `C[NH-].C[NH-].O=C(O)C(=O)O.[Pt+2]`, for which the T/C by setting is: (dose: 2.0 mg/kg/injection, schedule: Q04DX003 (ip), vehicle: other) 158 % of control; (dose: 3.0 mg/kg/injection, schedule: Q04DX003 (ip), vehicle: other) 200 % of control; (dose: 4.4 mg/kg/injection, schedule: Q04DX003 (ip), vehicle: other) 154 % of control; (dose: 4.5 mg/kg/injection, schedule: Q04DX003 (ip), vehicle: other) 166 % of control; (dose: 6.7 mg/kg/injection, schedule: Q04DX003 (ip), vehicle: other) 186 % of control; (dose: 10.0 mg/kg/injection, schedule: Q04DX003 (ip), vehicle: other) 190 % of control. For the same compound, the T/C (dose: 10.5 mg/kg/injection, schedule: Q04DX003 (ip), vehicle: other) was 170 % of control; the T/C (dose: 12.5 mg/kg/injection, schedule: Q04DX003 (ip), vehicle: other) is 208 % of control; the T/C (dose: 16.0 mg/kg/injection, schedule: Q04DX003 (ip), vehicle: other) is 208 % of control; the T/C under setting [3] is 250 % of control and 254 % of control and 183 % of control; the T/C (dose: 100.0 mg/kg/injection, schedule: Q04DX003 (ip), vehicle: other) was 90 % of control.
Take `CC1(C)C2=CCCC3(OCCO3)C2(C)CCC1O` (configuration not stated): the T/C is, setting by setting: under setting [8], 100 % of control; under setting [9], 100 % of control; under setting [10], 90 % of control.
Consider `N#Cc1cc2c3c(c1)CCCN3CCC2`, for which the T/C runs as follows: (dose: 40.0 mg/kg/injection, schedule: Q01DX001 (ip), vehicle: saline with Tween-80) 100 % of control; (dose: 80.0 mg/kg/injection, schedule: Q01DX001 (ip), vehicle: saline with Tween-80) 95 % of control; (dose: 160.0 mg/kg/injection, schedule: Q01DX001 (ip), vehicle: saline with Tween-80) 109 % of control.
For the compound `CC(=O)OC1CCCc2c1nc1ccccc1[n+]2[O-]` (configuration not stated), the T/C was 88 % of control under setting [4], 100 % of control under setting [8] and 96 % of control under setting [9].
Take `Cc1cc(OCc2nc(N)nc(N)c2-c2ccc(Cl)c(Cl)c2)ccc1NS(=O)(=O)c1cccc(S(=O)(=O)F)c1`: the T/C reads like this: (dose: 45.0 mg/kg/injection, schedule: Q04DX003 (ip), vehicle: Klucel (hydroxypropylcellulose) (HPC)) 109 % of control; (dose: 65.0 mg/kg/injection, schedule: Q04DX003 (ip), vehicle: Klucel (hydroxypropylcellulose) (HPC)) 118 % of control; under setting [1], 122 % of control; (dose: 264.0 mg/kg/injection, schedule: Q04DX003 (ip), vehicle: Klucel (hydroxypropylcellulose) (HPC)) 175 % of control; under setting [2], 170 % of control.
Turning to `c1ccc2cc3c(cc2c1)Nc1cc2ccccc2cc1N3`, the T/C reads like this: under setting [8], 96 % of control; under setting [11], 100 % of control; under setting [9], 103 % of control; under setting [12], 100 % of control; under setting [10], 100 % of control; (dose: 400.0 mg/kg/injection, schedule: Q04DX003 (ip), vehicle: saline with Tween-80) 108 % of control.
As for `O=[N+]([O-])c1ccc2scc3c4ccccc4nc-3c2c1`, under setting [13], the T/C is 103 % of control.
`CC(=O)N1C(=O)NC(=O)C1(CSCc1ccccc1)CSCc1ccccc1`: the T/C was 98 % of control (dose: 25.0 mg/kg/injection, schedule: Q04DX003 (ip), vehicle: saline); 98 % of control under setting [5]; 116 % of control under setting [6]; 107 % of control under setting [7]; 99 % of control (dose: 400.0 mg/kg/injection, schedule: Q04DX003 (ip), vehicle: saline).
Turning to `Cc1c2c(nn1-c1ccccn1)C(=O)C=C(Nc1ccccc1)C2=O`, for the setting “dose: 8.8 mg/kg/injection, schedule: Q01DX009 (ip), vehicle: carboxymethylcellulose (CMC)”, the T/C is 91 % of control.
Take `COc1cc(/C=N\NC(=O)OC(C)(C)C)cc(OC)c1OC`: the T/C under setting [4] was 118 % of control, the T/C under setting [8] is 113 % of control and the T/C under setting [9] is 86 % of control.
Regarding `O=C(/C(=C\c1ccccc1)CN1CCOCC1)c1ccc(Br)cc1`, the T/C (dose: 25.0 mg/kg/injection, schedule: Q01DX009 (ip), vehicle: Klucel (hydroxypropylcellulose) (HPC)) was 104 % of control; the T/C (dose: 37.5 mg/kg/injection, schedule: Q04DX003 (ip), vehicle: Klucel (hydroxypropylcellulose) (HPC)) is 108 % of control; the T/C (dose: 50.0 mg/kg/injection, schedule: Q01DX009 (ip), vehicle: Klucel (hydroxypropylcellulose) (HPC)) is 108 % of control; the T/C (dose: 75.0 mg/kg/injection, schedule: Q04DX003 (ip), vehicle: Klucel (hydroxypropylcellulose) (HPC)) was 104 % of control; the T/C (dose: 150.0 mg/kg/injection, schedule: Q04DX003 (ip), vehicle: Klucel (hydroxypropylcellulose) (HPC)) was 108 % of control.
Regarding `C[C@]12C=CC(=O)C=C1CC[C@@H]1[C@@H]2CC[C@]2(C)OC(=O)CC[C@@H]12`, the T/C reads like this: under setting [4], 100 % of control; under setting [8], 86 % of control; under setting [11], 90 % of control; under setting [9], 90 % of control; under setting [12], 90 % of control.
With `Cc1cccc[n+]1CCC(N)=O`, the T/C is 92 % of control under setting [13]; 117 % of control (dose: 12.5 mg/kg/injection, schedule: Q01DX009 (ip), vehicle: saline); 103 % of control (dose: 25.0 mg/kg/injection, schedule: Q01DX009 (ip), vehicle: saline).
